These are literature values, as cited in publication PMC4494773, “Design, synthesis, antiviral and cytotoxic evaluation of novel acyclic phosphonate nucleotide analogues with a 5,6-dihydro-1H-[1,2,3]triazolo[4,5-d]pyridazine-4,7-dione system” (Monatshefte Fur Chemie, 2014).

In data set [1] the test system is HIV-1. More on the design: method as in PMID 12901908.
Data set [2] has as its system viral helicase from HCV. More on the design: method as in PMID 11959550.
Data set [3] relates to viral helicase from West Nile Virus (WNV). More on the design: method as in PMID 11959550.

On to `NC(=O)c1cn(C2CC(CCP(=O)(O)O)CC2O)nn1` (stereo not drawn) [compound 2], for which, in data set [1], the “antiviral activity against HIV-1” value is “displayed antiviral activity”.

As to `COC1C(O)C(CO)OC1n1cnc2c(=O)[nH][nH]c(=O)c21` (stereo not drawn) [compound 6], the “antiviral activity by inhibition of a viral helicase” value in data set [2] and in data set [3] was “exhibited antiviral activity by inhibition of a viral helicase” throughout.

In the case of `O=c1[nH][nH]c(=O)c2c1ncn2C1OC(CO)C(O)C1O` (stereo not drawn) [compound 5], the “antiviral activity by inhibition of a viral helicase” value in data set [2] and in data set [3] was “exhibited antiviral activity by inhibition of a viral helicase” throughout.

With `NC(=O)c1nnn(C2CC(CO)CC2O)c1N` (stereo not drawn) [compound 1], the “antiviral activity against HIV-1” value in data set [1] was “displayed antiviral activity”.
